Data reported in patent publication US20040058957A1, “Benzothiophene derivatives and herbicidal compositions containing the same” (priority 2000, published 2004).
Blank lines part the entries; values can stand above or below the molecule they belong to.

Legend:
Scirpus juncoides [1] = experiment: Submersion test, treatment 3 days after transplantation: herbicidal effect; format: in vivo; details: rated 30 days after application
Procedure: (§1) A mixture consisting of 57 parts by weight of talc and 40 parts by weight of bentonite as carrier and 3 parts by weight of sodium alkylbenzenesulfonate as surfactant was pulverized and mixed uniformly to obtain a carrier for wettable powder. Each herbicidal composition was prepared by uniformly pulverizing and mixing 90 parts by weight of the carrier for wettable powder and 10 parts by weight of the benzothiophene derivative produced in each example.
(§2) Seeds of Scirpus juncoides were sowed onto paddy field soil in a Wagner pot of 1/2000 are. Then, rice seedlings of 2.5 leaf stage were transplanted in the soil. Water was pored into the pot so as to submerge the soil at a depth of 3 cm. The pot was placed in a greenhouse maintained at 20 to 25° C. for vegetation. After 3 days from transplantation of the rice seedlings, a predetermined amount of the herbicidal composition prepared in the step [1] was applied to the pot. After 30 days from the application of the herbicidal composition, the herbicidal effect and injury to the paddy rice were determined.
(§3) The herbicidal effect and the injury to crops in the above tests (1) and (2) were evaluated based on the following ratings.
(§4) The degree of weed control (%) was calculated from the weights of the above-ground parts of fresh weeds in the treated area and the untreated area using the following equation:
(§5) Degree of weed control (%)=[1−(weight of weeds in treated area)/(weight of weeds in untreated area)]×100
(§6) The herbicidal effect was determined according to the following ratings: […]

paddy rice = experiment: Submersion test, treatment 3 days after transplantation: injury to paddy rice; format: in vivo; design: key: 0: No injury; 1: Substantially no injury; 2: Slight injury; 3: Some injury; 4: Remarkable injury; 5: Almost all crops dead; details: rated 30 days after application
Procedure: A mixture consisting of 57 parts by weight of talc and 40 parts by weight of bentonite as carrier and 3 parts by weight of sodium alkylbenzenesulfonate as surfactant was pulverized and mixed uniformly to obtain a carrier for wettable powder. […] Then, rice seedlings of 2.5 leaf stage were transplanted in the soil. Water was pored into the pot so as to submerge the soil at a depth of 3 cm. The pot was placed in a greenhouse maintained at 20 to 25° C. for vegetation. […] After 30 days from the application of the herbicidal composition, the herbicidal effect and injury to the paddy rice were determined. […] The injury to crops was evaluated according to the following ratings: [table]

Scirpus juncoides [2] = experiment: Submersion test, treatment 10 days after transplantation: herbicidal effect; format: in vivo; details: rated 30 days after application
Procedure: as §1
as §2, with “vegetation. After 10 days from” for “vegetation. After 3 days from”
as §3, §4, §5, §6

- melting point: 174.7 to 175.1 °C
Structure (SMILES): CSC1Cc2c(ccc(C(=O)C3C(=O)CCCC3=O)c2Cl)S1(=O)=O (stereo not drawn) [Compound No. 1, 4-chloro-2-methylthio-5-(1,3-dioxocyclohex-2-yl)carbonyl-2,3-dihydrobenzothiophene 1,1-dioxide]
- Herbicidal effect Scirpus juncoides (Scirpus juncoides [1]; application rate 100 g/ha): 5 (90% or higher (almost completely dead))
- Herbicidal effect Scirpus juncoides (Scirpus juncoides [1]; application rate 200 g/ha): 5 (90% or higher (almost completely dead))
- Injury paddy rice (paddy rice; application rate 100 g/ha): 0
- Injury paddy rice (paddy rice; application rate 200 g/ha): 0
- Herbicidal effect Scirpus juncoides (Scirpus juncoides [2]; application rate 100 g/ha): 5 (90% or higher (almost completely dead))
- Herbicidal effect Scirpus juncoides (Scirpus juncoides [2]; application rate 200 g/ha): 5 (90% or higher (almost completely dead))

- melting point: 192.7 to 193.2 °C
Structure (SMILES): CSC1Cc2c(ccc(C(=O)C3C(=O)CCCC3=O)c2C)S1(=O)=O (stereo not drawn) [Compound No. 10, 4-methyl-2-methylthio-5-(1,3-dioxocyclohex-2-yl)carbonyl-2,3-dihydrobenzothiophene 1,1-dioxide]
- Herbicidal effect Scirpus juncoides (Scirpus juncoides [1]; application rate 100 g/ha): 5 (90% or higher (almost completely dead))
- Herbicidal effect Scirpus juncoides (Scirpus juncoides [1]; application rate 200 g/ha): 5 (90% or higher (almost completely dead))
- Injury paddy rice (paddy rice; application rate 100 g/ha): 0
- Injury paddy rice (paddy rice; application rate 200 g/ha): 0
- Herbicidal effect Scirpus juncoides (Scirpus juncoides [2]; application rate 100 g/ha): 5 (90% or higher (almost completely dead))
- Herbicidal effect Scirpus juncoides (Scirpus juncoides [2]; application rate 200 g/ha): 5 (90% or higher (almost completely dead))

- melting point: 206.1 to 211.6 °C
Structure (SMILES): CSC1Cc2c(ccc(C(=O)C3C(=O)CCCC3=O)c2C(F)(F)F)S1(=O)=O (stereo not drawn) [Compound No. 11, 2-methylthio-4-trifluoromethyl-5-(1,3-dioxocyclohex-2-yl)carbonyl-2,3-dihydrobenzothiophene 1,1-dioxide]
- Herbicidal effect Scirpus juncoides (Scirpus juncoides [1]; application rate 100 g/ha): 5 (90% or higher (almost completely dead))
- Herbicidal effect Scirpus juncoides (Scirpus juncoides [1]; application rate 200 g/ha): 5 (90% or higher (almost completely dead))
- Injury paddy rice (paddy rice; application rate 100 g/ha): 0
- Injury paddy rice (paddy rice; application rate 200 g/ha): 0
- Herbicidal effect Scirpus juncoides (Scirpus juncoides [2]; application rate 100 g/ha): 5 (90% or higher (almost completely dead))
- Herbicidal effect Scirpus juncoides (Scirpus juncoides [2]; application rate 200 g/ha): 5 (90% or higher (almost completely dead))

- melting point: 150.3 to 150.5 °C
Structure (SMILES): COC(=O)C(C(=O)OC)C1=C(C(=O)c2ccc3c(c2Cl)CC(SC)S3(=O)=O)C(=O)CCC1 (stereo not drawn) [Compound No. 40, 4-chloro-2-methylthio-5-[3-(bis-methoxycarbonyl)methyl-1-oxo-2-cyclohexen-2-yl]carbonyl-2,3-dihydrobenzothiophene 1,1-dioxide]
- Herbicidal effect Scirpus juncoides (Scirpus juncoides [1]; application rate 100 g/ha): 4 (70% or higher but less than 90%)
- Herbicidal effect Scirpus juncoides (Scirpus juncoides [1]; application rate 200 g/ha): 5 (90% or higher (almost completely dead))
- Injury paddy rice (paddy rice; application rate 100 g/ha): 0
- Injury paddy rice (paddy rice; application rate 200 g/ha): 0
- Herbicidal effect Scirpus juncoides (Scirpus juncoides [2]; application rate 100 g/ha): 4 (70% or higher but less than 90%)
- Herbicidal effect Scirpus juncoides (Scirpus juncoides [2]; application rate 200 g/ha): 5 (90% or higher (almost completely dead))

- melting point: 195.5 to 197 °C
Structure (SMILES): CSC1Cc2c(Cl)c(C(=O)C3C(=O)CCCC3=O)cc(C)c2S1(=O)=O (stereo not drawn) [Compound No. 43, 4-chloro-7-methyl-2-methylthio-5-(1,3-dioxocyclohex-2-yl)carbonyl-2,3-dihydrobenzothiophene 1,1-dioxide]
- Herbicidal effect Scirpus juncoides (Scirpus juncoides [1]; application rate 100 g/ha): 5 (90% or higher (almost completely dead))
- Herbicidal effect Scirpus juncoides (Scirpus juncoides [1]; application rate 200 g/ha): 5 (90% or higher (almost completely dead))
- Injury paddy rice (paddy rice; application rate 100 g/ha): 0
- Injury paddy rice (paddy rice; application rate 200 g/ha): 0
- Herbicidal effect Scirpus juncoides (Scirpus juncoides [2]; application rate 100 g/ha): 5 (90% or higher (almost completely dead))
- Herbicidal effect Scirpus juncoides (Scirpus juncoides [2]; application rate 200 g/ha): 5 (90% or higher (almost completely dead))

- melting point: 143.2 to 154.8 °C
Structure (SMILES): CCSC1Cc2c(Cl)c(C(=O)C3C(=O)CCCC3=O)cc(C)c2S1(=O)=O (stereo not drawn) [Compound No. 44, 4-chloro-7-methyl-2-ethylthio-5-(1,3-dioxocyclohex-2-yl)carbonyl-2,3-dihydrobenzothiophene 1,1-dioxide]
- Herbicidal effect Scirpus juncoides (Scirpus juncoides [1]; application rate 100 g/ha): 5 (90% or higher (almost completely dead))
- Herbicidal effect Scirpus juncoides (Scirpus juncoides [1]; application rate 200 g/ha): 5 (90% or higher (almost completely dead))
- Injury paddy rice (paddy rice; application rate 100 g/ha): 0
- Injury paddy rice (paddy rice; application rate 200 g/ha): 0
- Herbicidal effect Scirpus juncoides (Scirpus juncoides [2]; application rate 100 g/ha): 5 (90% or higher (almost completely dead))
- Herbicidal effect Scirpus juncoides (Scirpus juncoides [2]; application rate 200 g/ha): 5 (90% or higher (almost completely dead))

The remaining lines, values behind:

Structure (SMILES): COCCSC1Cc2c(Cl)c(C(=O)C3C(=O)CCCC3=O)cc(C)c2S1(=O)=O (stereo not drawn) [Compound No. 45, 4-chloro-7-methyl-2-(2-methoxyethyl)thio-5-(1,3-dioxocyclohex-2-yl)carbonyl-2,3-dihydrobenzothiophene 1,1-dioxide]
- Herbicidal effect Scirpus juncoides (Scirpus juncoides [1]; application rate 100 g/ha): 5 (90% or higher (almost completely dead))
- Herbicidal effect Scirpus juncoides (Scirpus juncoides [1]; application rate 200 g/ha): 5 (90% or higher (almost completely dead))
- Injury paddy rice (paddy rice; application rate 100 g/ha): 0
- Injury paddy rice (paddy rice; application rate 200 g/ha): 0
- Herbicidal effect Scirpus juncoides (Scirpus juncoides [2]; application rate 100 g/ha): 5 (90% or higher (almost completely dead))
- Herbicidal effect Scirpus juncoides (Scirpus juncoides [2]; application rate 200 g/ha): 5 (90% or higher (almost completely dead))

Structure (SMILES): Cc1cc(C(=O)C2C(=O)CCCC2=O)c(Cl)c2c1S(=O)(=O)C(S(C)(=O)=O)C2 (stereo not drawn) [Compound No. 46, 4-chloro-7-methyl-2-methanesulfonyl-5-(1,3-dioxocyclohex-2-yl)carbonyl-2,3-dihydrobenzothiophene 1,1-dioxide]
- Herbicidal effect Scirpus juncoides (Scirpus juncoides [1]; application rate 100 g/ha): 5 (90% or higher (almost completely dead))
- Herbicidal effect Scirpus juncoides (Scirpus juncoides [1]; application rate 200 g/ha): 5 (90% or higher (almost completely dead))
- Injury paddy rice (paddy rice; application rate 100 g/ha): 0
- Injury paddy rice (paddy rice; application rate 200 g/ha): 0
- Herbicidal effect Scirpus juncoides (Scirpus juncoides [2]; application rate 100 g/ha): 4 (70% or higher but less than 90%)
- Herbicidal effect Scirpus juncoides (Scirpus juncoides [2]; application rate 200 g/ha): 5 (90% or higher (almost completely dead))

Structure (SMILES): CSC1Cc2c(Cl)c(C(=O)C3=C(Cl)CCCC3=O)cc(C)c2S1(=O)=O (stereo not drawn) [Compound No. 49, 4-chloro-7-methyl-2-methylthio-5-(3-chloro-1-oxo-2-cyclohexen-2-yl)carbonyl-2,3-dihydrobenzothiophene 1,1-dioxide]
- Herbicidal effect Scirpus juncoides (Scirpus juncoides [1]; application rate 100 g/ha): 5 (90% or higher (almost completely dead))
- Herbicidal effect Scirpus juncoides (Scirpus juncoides [1]; application rate 200 g/ha): 5 (90% or higher (almost completely dead))
- Injury paddy rice (paddy rice; application rate 100 g/ha): 0
- Injury paddy rice (paddy rice; application rate 200 g/ha): 0
- Herbicidal effect Scirpus juncoides (Scirpus juncoides [2]; application rate 100 g/ha): 5 (90% or higher (almost completely dead))
- Herbicidal effect Scirpus juncoides (Scirpus juncoides [2]; application rate 200 g/ha): 5 (90% or higher (almost completely dead))

Structure (SMILES): CSC1Cc2c(Cl)c(C(=O)C3=C(SCCO)CCCC3=O)cc(C)c2S1(=O)=O (stereo not drawn) [Compound No. 50, 4-chloro-7-methyl-2-methylthio-5-[3-(2-hydroxyethyl)thio-1-oxo-2-cyclohexen-2-yl]carbonyl-2,3-dihydrobenzothiophene 1,1-dioxide]
- Herbicidal effect Scirpus juncoides (Scirpus juncoides [1]; application rate 100 g/ha): 5 (90% or higher (almost completely dead))
- Herbicidal effect Scirpus juncoides (Scirpus juncoides [1]; application rate 200 g/ha): 5 (90% or higher (almost completely dead))
- Injury paddy rice (paddy rice; application rate 100 g/ha): 0
- Injury paddy rice (paddy rice; application rate 200 g/ha): 0
- Herbicidal effect Scirpus juncoides (Scirpus juncoides [2]; application rate 100 g/ha): 5 (90% or higher (almost completely dead))
- Herbicidal effect Scirpus juncoides (Scirpus juncoides [2]; application rate 200 g/ha): 5 (90% or higher (almost completely dead))

Structure (SMILES): CSC1Cc2c(Cl)c(C(=O)C3=C(SCCOC(=O)CCl)CCCC3=O)cc(C)c2S1(=O)=O (stereo not drawn) [Compound No. 51, 4-chloro-7-methyl-2-methylthio-5-[3-(2-chloroacetoxyethyl)thio-1-oxo-2-cyclohexen-2-yl]carbonyl-2,3-dihydrobenzothiophene 1,1-dioxide]
- Herbicidal effect Scirpus juncoides (Scirpus juncoides [1]; application rate 100 g/ha): 4 (70% or higher but less than 90%)
- Herbicidal effect Scirpus juncoides (Scirpus juncoides [1]; application rate 200 g/ha): 5 (90% or higher (almost completely dead))
- Injury paddy rice (paddy rice; application rate 100 g/ha): 0
- Injury paddy rice (paddy rice; application rate 200 g/ha): 0
- Herbicidal effect Scirpus juncoides (Scirpus juncoides [2]; application rate 100 g/ha): 4 (70% or higher but less than 90%)
- Herbicidal effect Scirpus juncoides (Scirpus juncoides [2]; application rate 200 g/ha): 5 (90% or higher (almost completely dead))

Structure (SMILES): CSC1Cc2c(Cl)c(C(=O)C3=C(n4cccn4)CCCC3=O)cc(C)c2S1(=O)=O (stereo not drawn) [Compound No. 52, 4-chloro-7-methyl-2-methylthio-5-[3-(pyrazol-1-yl) -1-oxo-2-cyclohexen-2-yl]carbonyl-2,3-dihydrobenzothiophene 1,1-dioxide]
- Herbicidal effect Scirpus juncoides (Scirpus juncoides [1]; application rate 100 g/ha): 4 (70% or higher but less than 90%)
- Herbicidal effect Scirpus juncoides (Scirpus juncoides [1]; application rate 200 g/ha): 5 (90% or higher (almost completely dead))
- Injury paddy rice (paddy rice; application rate 100 g/ha): 0
- Injury paddy rice (paddy rice; application rate 200 g/ha): 0
- Herbicidal effect Scirpus juncoides (Scirpus juncoides [2]; application rate 100 g/ha): 4 (70% or higher but less than 90%)
- Herbicidal effect Scirpus juncoides (Scirpus juncoides [2]; application rate 200 g/ha): 5 (90% or higher (almost completely dead))
